Experimental data reported in patent US20090105124A1, “HETEROCYCLIC MODULATORS OF TGR5” (Kalypsys, Inc., priority 2007, published 2009).

The molecules below were run against T1, human TGR5 (Homo sapiens, UniProt Q8TDU6) (assay: cAMP production assay in HEK293 cells stably expressing TGR5 (LANCE cAMP, TR-FRET)). Details: stimulated with test compounds for 30 minutes, 1 mM IBMX, read-out: cAMP Production in 293-TGR5 Cells.
T1 construct: expressed in transfected cells
T1 sequence (Q8TDU6 1-330): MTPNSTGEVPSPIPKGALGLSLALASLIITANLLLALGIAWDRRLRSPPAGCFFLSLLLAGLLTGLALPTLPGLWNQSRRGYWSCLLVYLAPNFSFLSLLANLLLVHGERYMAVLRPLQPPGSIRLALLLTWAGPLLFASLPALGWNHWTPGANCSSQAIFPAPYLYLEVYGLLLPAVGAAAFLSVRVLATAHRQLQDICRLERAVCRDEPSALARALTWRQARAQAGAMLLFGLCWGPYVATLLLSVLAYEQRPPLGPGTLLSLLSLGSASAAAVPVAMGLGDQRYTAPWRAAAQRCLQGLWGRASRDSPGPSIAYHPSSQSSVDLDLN
Format: cell-based
Description: HEK293 cells stably expressing TGR5 (HEK293-TGR5) were established by stably transfecting HEK-293 cells with an expression vector (pcDNA 3.1, Invetrogen) inserted with human TGR5 cDNA using Fugene6 (Roche, Indianapolis, Ind.) according to conventional methods. Cells were grown in DMEM (invitrogen, Carlsbad, Calif.) supplemented with 10% FBS, 1% penicillin/streptomycin under geneticin selection. The presence of TGR5 transcripts in these cells was confirmed using branched DNA (bDNA, Genospectra, Inc., Fremont Calif.) following the manufacturer's protocol and using specific probes for human TGR5. cAMP production assay was performed in high throughput 1536 well format using LANCE cAMP detection kit (Perkin Elmer Inc., Boston, Mass.) according to the manufacturer's protocol. Briefly, HEK293-TGR5 cells were harvested using non-enzymatic cell dissociation buffer (Invitrogen, Carlsbad, Calif.) and suspended in DMEM supplemented with 0.1% FBS at a density of 800,000 cells/ml. Alexa antibody was added to the cell suspension, and 4 ul of the mixture was dispensed in white opaque tissue culture treated Greiner 1536 well plates (USA Scientific, Inc., Ocala, Fla.). After an overnight incubation at 37 C in an atmosphere of 10% CO2 and 95% humidity, 1 ul of 5 mM IBMX (Sigma, St. Louis, Mo.) solution in DMEM was dispensed for a final concentration of 1 mM. Cells were then stimulated with test compounds for 30 minutes, after which time 5 ul of detection reagent was added and incubated for 1-7 hrs at room temperature. TR-FRET signal was detected using the Viewlux (Perkin Elmer Inc., Boston Mass.). EC50 values were determined using Graph Pad Prizm analysis (GraphPad Software, Inc). The EC50 values for a wide range of bile acids generated from this assay were in agreement with the values published in the scientific literature. […] The symbol (+) denotes an EC50 value of ≦10 μM while the symbol (−) denotes an EC50 value of >10 μM (see Table 1).

Row | EC50 | SMILES
1 | ≤ 10 µM | O=c1c2cccnc2nc(-c2cncc(Cl)c2)n1NCc1ccc(Cl)cc1F [Example 1, 3-{[(4-Chloro-2-fluorophenyl)methyl]amino}-2-(5-chloropyridin-3-yl)-3H,4H-pyrido[2,3-d]pyrimidin-4-one]
2 | ≤ 10 µM | O=c1c2cccnc2nc(-c2ccccc2F)n1NCc1ccc(Cl)cc1 [Example 2, 3-{[(4-Chlorophenyl)methyl]amino}-2-(2-fluorophenyl)-3H,4H-pyrido[2,3-d]pyrimidin-4-one]
3 | ≤ 10 µM | COc1cccc(-c2nc3ncccc3c(=O)n2NCc2ccc(Cl)cc2)c1 [Example 3, 3-{[(4-Chlorophenyl)methyl]amino}-2-(3-methoxyphenyl)-3H,4H-pyrido[2,3-d]pyrimidin-4-one]
4 | ≤ 10 µM | O=c1c2cccnc2nc(-c2ccc(F)cc2)n1NCc1ccc(Br)cc1 [Example 4, 3-{[(4-Bromophenyl)methyl]amino}-2-(4-fluorophenyl)-3H,4H-pyrido[2,3-d]pyrimidin-4-one]
5 | ≤ 10 µM | COc1ccc(-c2nc3ncccc3c(=O)n2NCc2ccc(Br)cc2)cc1 [Example 5, 3-{[(4-Bromophenyl)methyl]amino}-2-(4-methoxyphenyl)-3H,4H-pyrido[2,3-d]pyrimidin-4-one]
6 | ≤ 10 µM | O=c1c2cccnc2nc(-c2ccc(O)cc2)n1NCc1ccc(Br)cc1 [Example 6, 3-{[(4-Bromophenyl)methyl]amino}-2-(4-hydroxyphenyl)-3H,4H-pyrido[2,3-d]pyrimidin-4-one]
7 | ≤ 10 µM | O=c1c2cccnc2nc(-c2cccnc2)n1NCc1ccc(Cl)cc1 [Example 7, 3-{[(4-Chlorophenyl)methyl]amino}-2-(pyridin-3-yl)-3H,4H-pyrido[2,3-d]pyrimidin-4-one]
8 | ≤ 10 µM | O=c1c2cccnc2nc(-c2cncc(Cl)c2)n1NCc1ccc(Cl)cc1 [Example 8, 3-{[(4-Chlorophenyl)methyl]amino}-2-(5-chloropyridin-3-yl)-3H,4H-pyrido[2,3-d]pyrimidin-4-one]
9 | ≤ 10 µM | COc1cncc(-c2nc3ncccc3c(=O)n2NCc2ccc(Cl)cc2)c1 [Example 9, 3-{[(4-Chlorophenyl)methyl]amino}-2-(5-methoxypyridin-3-yl)-3H,4H-pyrido[2,3-d]pyrimidin-4-one]
10 | ≤ 10 µM | O=c1c2cccnc2nc(-c2ccc(F)cc2)n1NCc1ccc(Cl)cc1 [Example 10, 3-{[(4-Chlorophenyl)methyl]amino}-2-(4-fluorophenyl)-3H,4H-pyrido[2,3-d]pyrimidin-4-one]
11 | ≤ 10 µM | O=c1c2cccnc2nc(-c2ccc(F)cc2)n1NCc1ccc(C(F)(F)F)cc1 [Example 11, 2-(4-Fluorophenyl)-3-({[4-(trifluoromethyl)phenyl]methyl}amino)-3H,4H-pyrido[2,3-d]pyrimidin-4-one]
12 | ≤ 10 µM | O=c1c2cccnc2nc(-c2ccc(F)cc2)n1NCc1ccc(F)c(F)c1 [Example 12, 3-{[(3,4-Difluorophenyl)methyl]amino}-2-(4-fluorophenyl)-3H,4H-pyrido[2,3-d]pyrimidin-4-one]
13 | ≤ 10 µM | COc1cc(-c2nc3ncccc3c(=O)n2NCc2ccc(Br)cc2)ccc1C [Example 13, 3-{[(4-Bromophenyl)methyl]amino}-2-(3-methoxy-4-methylphenyl)-3H,4H-pyrido[2,3-d]pyrimidin-4-one]
14 | ≤ 10 µM | COc1cc(-c2nc3ncccc3c(=O)n2NCc2ccc(Cl)cc2)ccc1C [Example 14, 3-{[(4-Chlorophenyl)methyl]amino}-2-(3-methoxy-4-methylphenyl)-3H,4H-pyrido[2,3-d]pyrimidin-4-one]
15 | ≤ 10 µM | COc1cc(-c2nc3ncccc3c(=O)n2NCc2ccc(Cl)cc2)ccc1O [Example 15, 3-{[(4-Chlorophenyl)methyl]amino}-2-(4-hydroxy-3-methoxyphenyl)-3H,4H-pyrido[2,3-d]pyrimidin-4-one]
16 | ≤ 10 µM | COc1cncc(-c2nc3cnccc3c(=O)n2NCc2ccc(Cl)cc2)c1 [Example 16, 3-{[(4-Chlorophenyl)methyl]amino}-2-(5-methoxypyridin-3-yl)-3H,4H-pyrido[3,4-d]pyrimidin-4-one]
17 | ≤ 10 µM | O=c1c2ccncc2nc(-c2ccc(F)cc2)n1NCc1ccc(Br)cc1 [Example 17, 3-{[(4-Bromophenyl)methyl]amino}-2-(4-fluorophenyl)-3H,4H-pyrido[3,4-d]pyrimidin-4-one]

Row | EC50 | SMILES
18 | ≤ 10 µM | O=c1c2ccncc2nc(-c2cncc(Cl)c2)n1NCc1ccc(Cl)cc1 [Example 18, 3-{[(4-Chlorophenyl)methyl]amino}-2-(5-chloropyridin-3-yl)-3H,4H-pyrido[3,4-d]pyrimidin-4-one]
19 | ≤ 10 µM | Cc1cc(-c2nc3cnccc3c(=O)n2NCc2ccc(Cl)cc2)ccc1[N+](=O)[O-] [Example 19, 3-{[(4-Chlorophenyl)methyl]amino}-2-(3-methyl-4-nitrophenyl)-3H,4H-pyrido[3,4-d]pyrimidin-4-one]
20 | ≤ 10 µM | Cc1cc(-c2nc3cnccc3c(=O)n2NCc2ccc(Cl)cc2)ccc1N [Example 20, 2-(4-Amino-3-methylphenyl)-3-{[(4-chlorophenyl)methyl]amino}-3H,4H-pyrido[3,4-d]pyrimidin-4-one]
21 | ≤ 10 µM | Cc1cc(-c2nc3cnccc3c(=O)n2NCc2ccc(Cl)cc2)ccc1O [Example 21, 3-{[(4-Chlorophenyl)methyl]amino}-2-(4-hydroxy-3-methylphenyl)-3H,4H-pyrido[3,4-d]pyrimidin-4-one]
22 | ≤ 10 µM | COc1cc(-c2nc3cnccc3c(=O)n2NCc2ccc(Cl)cc2)ccc1O [Example 22, 3-{[(4-Chlorophenyl)methyl]amino}-2-(4-hydroxy-3-methoxyphenyl)-3H,4H-pyrido[3,4-d]pyrimidin-4-one]
23 | ≤ 10 µM | O=c1c2cnccc2nc(-c2ccc(F)cc2)n1NCc1ccc(Cl)cc1 [Example 23, 3-{[(4-Chlorophenyl)methyl]amino}-2-(4-fluorophenyl)-3H,4H-pyrido[4,3-d]pyrimidin-4-one]
24 | ≤ 10 µM | O=c1c2ncccc2nc(-c2ccc(F)cc2)n1NCc1ccc(Br)cc1 [Example 25, 3-{[(4-Bromophenyl)methyl]amino}-2-(4-fluorophenyl)-3H,4H-pyrido[3,2-d]pyrimidin-4-one]
25 | ≤ 10 µM | O=c1c2ccsc2nc(-c2ccc(O)cc2)n1NCc1ccc(Br)cc1 [Example 26, 3-{[(4-Bromophenyl)methyl]amino}-2-(4-hydroxyphenyl)-3H,4H-thieno[2,3-d]pyrimidin-4-one]
26 | ≤ 10 µM | COc1cncc(-c2nc3ccsc3c(=O)n2NCc2ccc(Cl)cc2)c1 [Example 27, 3-{[(4-Chlorophenyl)methyl]amino}-2-(5-methoxypyridin-3-yl)-3H,4H-thieno[3,2-d]pyrimidin-4-one]
27 | ≤ 10 µM | COc1cncc(-c2nc3ccsc3c(=O)n2NCC2CCC2)c1 [Example 28, 3-[(Cyclobutylmethyl)amino]-2-(5-methoxypyridin-3-yl)-3H,4H-thieno[3,2-d]pyrimidin-4-one]
28 | ≤ 10 µM | COc1cncc(-c2nc3nccnc3c(=O)n2NCc2ccc(Cl)cc2)c1 [Example 29, 3-{[(4-Chlorophenyl)methyl]amino}-2-(5-methoxypyridin-3-yl)-3,4-dihydropteridin-4-one]
29 | ≤ 10 µM | O=c1c2cncnc2nc(-c2ccc(F)cc2)n1NCc1ccc(Cl)cc1 [Example 30, 3-{[(4-Chlorophenyl)methyl]amino}-2-(4-fluorophenyl)-3H,4H-pyrimido[4,5-d][1,3]diazin-4-one]
30 | ≤ 10 µM | O=c1c2ccsc2nc(-c2ccc(F)cc2)n1NCc1ccc(Br)cc1 [Example 31, 3-{[(4-Bromophenyl)methyl]amino}-2-(4-fluorophenyl)-3H,4H-thieno[2,3-d]pyrimidin-4-one]
31 | ≤ 10 µM | O=c1c2ccsc2nc(-c2ccc(F)cc2)n1NCc1ccc(Cl)cc1 [Example 32, 3-{[(4-Chlorophenyl)methyl]amino}-2-(4-fluorophenyl)-3H,4H-thieno[2,3-d]pyrimidin-4-one]
32 | ≤ 10 µM | O=c1c2ccsc2nc(-c2ccc(F)cc2)n1NCc1ccc(Cl)c(Cl)c1 [Example 33, 3-{[(3,4-Dichlorophenyl)methyl]amino}-2-(4-fluorophenyl)-3H,4H-thieno[2,3-d]pyrimidin-4-one]
33 | ≤ 10 µM | COc1cncc(-c2nc3sccc3c(=O)n2NCc2ccc(Cl)cc2)c1 [Example 34, 3-{[(4-Chlorophenyl)methyl]amino}-2-(5-methoxypyridin-3-yl)-3H,4H-thieno[2,3-d]pyrimidin-4-one]
